Results taken from paper PMC10728220, “Novel 3-(pyrazol-4-yl)-2-(1H-indole-3-carbonyl)acrylonitrile derivatives induce intrinsic and extrinsic apoptotic death mediated P53 in HCT116 colon carcinoma” (Scientific Reports, 2023).

Columns and labels:
Human caspase-8 = assay: ELISA caspase 8 production in HCT116; format: cell-based
Procedure: The production of caspase 8 was determined using various concentrations of 7f in a concertation-dependent manner. There was a gradual increase in the caspase 8 production level using the following concentrations (0.156, 0.312, 0.625, 1.25, 2.5, 5, and 10 ng/ml). The maximal increase in caspase 8 production was achieved by using 7f concentrations between 5 and 10 ng/ml (Fig. 8).
The quantitative measurements of Human caspases-3, -8, and -9 concentrations in HCT116 cell culture lysates were performed using ELISA assay. The protocols were followed up based on the manuscript instructions described in the following kits; Invitrogen human Caspase-3 Elisa Kit, Catalog # KHO1091, DRG® human Caspase-8 ELISA Kit, Catalog # (EIA-4863), and DRG® human Caspase-9 ELISA Kit, Catalog # (EIA-4860)respectively. In short, the procedure described in the above protocols was as instructed; all reagents, standards, and samples were prepared. Then, 100 μL of standard or samples were added to each well and incubated at room temperature for 2 h. Afterward, 100 μL of the prepared antibody (anti-rabbit-IgG-HRP) was added to all wells for 1 h at room temperature. […] All readings were measured immediately at a wavelength of 450 nm. From the readings of the standards, a standard curve was plotted using curve fitting software. Then, the concentrations for unknown samples and controls were measured from the standard curve.

HCT116 cells [1] = assay: Flow cytometric analysis of cell cycle; format: cell-based, human; settings: HCT116, 6.76 µg/mL, 48 h
Procedure: (§1) Chalcone 7f was selected for more investigations, in attempts to find its molecular action on cancer cells. It illustrated high and very interesting cytotoxicity toward the tested colon cancer cell line (HCT116) as mentioned in the above MTT assay data (Table 1). A flow cytometric report was utilized in this recent paper to investigate the effect of our novel acrylonitrile compound 7f on the cell cycle, HCT116 cells were treated with compound 7f at a dose of (6.76 µg/mL) for 48 h and subjected to flow cytometric analysis.
In this study, non-treated HCT116 cells were used as a negative control. After the incubation period of 48 h, HCT116 treated cells were centrifuged at 1,200 rpm at 4 °C for 10 min. After disposing of the supernatant, the cell pellet was suspended in phosphate-buffered saline (PBS) and then centrifuged at 1200 rpm for 10 min. 70% cold ethanol was added overnight to allow the fixation of the cell pellet. After the step of centrifugation, the propidium iodide (PI) mixture was added to the cell pellet for 30 min at room temperature in the darkness. Subsequently, cells were subjected to Epics XL-MCL flow cytometer (BeckmanCoulter, Miami, FL) for analysis of DNA content. The percentage of cells in different phases of the cell cycle was analyzed by Multicycle software (Phoenix Flow Systems, San Diego, CA).

HCT116 cells [2] = assay: Flow cytometric analysis of apoptosis (Annexin V-FITC/PI); format: cell-based, human; settings: HCT116, 7f treated
Procedure: as §1
The percentage of apoptotic cells was detected using Annexin V-FITC kit catalogue number (#K101-25). Briefly, 5 × 10^5 of HCT116 cells were collected by centrifugation. Then, the cell pellet was suspended in 500 µL of 1X Binding Buffer. Afterward, 5 µL of Annexin V-FITC and 5 µL of propidium iodide were added to cells and kept at room temperature for 5 min in the dark[89]–[91]. Finally, the percentage of the apoptotic cells was detected by flow cytometry using the FITC signal detector(usually FL-1) and PI staining by the phycoerythrin emission signal detector (usually FL-2).

**Q.** For `N#C/C(=C\c1cn(-c2ccccc2)nc1-c1ccc([N+](=O)[O-])cc1)C(=O)c1c[nH]c2ccccc12` [Compound 7f, (E)-2-(1H-Indole-3-carbonyl)-3-(3-(4-nitrophenyl)-1-phenyl-1H-pyrazol-4-yl)acrylonitrile], which “caspase 8 production, fold increase” value (Human caspase-8; HCT116 treated with 7f versus untreated) is on record?
**A.** 3.788 fold

**Q.** And the “caspase 8 production level” value (Human caspase-8; HCT116 treated with 7f, untreated 0.2914 ng/ml)?
**A.** 1.104 ng/mL

**Q.** And the “DNA content in G2/M phase (%DIP G2/M)” value (HCT116 cells [1]; control 13.68%)?
**A.** 2.55%

**Q.** What about the “cells in S phase (%DIP S)” value (HCT116 cells [1]; control 41.04%) of the same compound?
**A.** 46.12%

**Q.** And the “cell accumulation in G1 phase (%DIP G1)” value (HCT116 cells [1]; control 45.28%)?
**A.** 51.33%

**Q.** And the early apoptotic induction (HCT116 cells [2]; control 0.32%)?
**A.** 21.38%

**Q.** What about the necrosis (HCT116 cells [2]; control 1.12%) of the same compound?
**A.** 6.82%
